Measured values from patent publication US6417212B1, “Modulators of peroxisome proliferator activated receptors” (Eli Lilly & Company, priority 1999, dated 2002).

Experiments:
db/db mice = test: Evaluation of glucose levels in db/db mice; assay type: in vivo; details: Mus musculus, 168 h; 30 mg/kg daily oral gavage for 7 days; 100% = glucose not different from lean values; read-out: Glucose Normalisation
Procedure: After an acclimation period of 2 weeks, animals were individually identified by ear notches, weighed, and bled via the tail vein for determination of initial glucose levels. Blood was collected (100 μl) from unfasted animals by wrapping each mouse in a towel, cutting the tip of the tail with a scalpel, and milking blood from the tail into a heparinized capillary tube (Fisher) balanced on the edge of the bench. Sample was discharged into a heparinized microtainer with gel separator (VWR) and retained on ice. Plasma was obtained after centrifugation at 4° C. and glucose measured immediately. Remaining plasma was frozen until the completion of the experiment, when glucose and triglycerides were assayed in all samples. Animals were grouped based on initial glucose levels and body weights. Beginning the following morning, mice were dosed daily by oral gavage for 7 days using a 20 gauge, 1½″ curved disposable feeding needle. […] On day 7, mice were weighed and bled (tail vein) 3 hours after dosing. Twenty-four hours after the 7th dose (i.e., day 8), animals were bled again (tail vein). Samples obtained from conscious animals on days 0, 7 and 8 were assayed for glucose. After the 24 hour bleed, animals were weighed and dosed for the final time. Three hours after dosing on day 8, animals were anesthetized by inhalation of isoflurane and blood obtained via cardiac puncture (0.5-0.7 ml). Whole blood was transferred to serum separator tubes, chilled on ice and permitted to clot. Serum was obtained after centrifugation at 4° C. and frozen until analysis for compound levels. After sacrifice by cervical dislocation, the liver, heart and epididymal fat pads were excised and weighed.
The absorbance of the dye produced is linearly related to the analyte in the sample. The assays were further modified in our laboratory for use in a 96 well format. […] An additional aliquot of sample, pipetted to a third well and diluted in 200 μl water, provided a blank for each specimen. […] Sample absorbances were compared to a standard curve (100-800, 10-500, and 100-400 mg/dl for glucose, triglycerides and total cholesterol, respectively). […] All samples from an experiment were assayed at the same time to minimize inter-assay variability.

huPPARγ = target: T1, huPPARγ (Homo sapiens, UniProt P37231); test: DNA-dependent binding (ABCD binding), SPA, huPPARγ; details: displacement of tritium-labeled PPARγ agonist radioligand
T1 sequence (P37231 1-505): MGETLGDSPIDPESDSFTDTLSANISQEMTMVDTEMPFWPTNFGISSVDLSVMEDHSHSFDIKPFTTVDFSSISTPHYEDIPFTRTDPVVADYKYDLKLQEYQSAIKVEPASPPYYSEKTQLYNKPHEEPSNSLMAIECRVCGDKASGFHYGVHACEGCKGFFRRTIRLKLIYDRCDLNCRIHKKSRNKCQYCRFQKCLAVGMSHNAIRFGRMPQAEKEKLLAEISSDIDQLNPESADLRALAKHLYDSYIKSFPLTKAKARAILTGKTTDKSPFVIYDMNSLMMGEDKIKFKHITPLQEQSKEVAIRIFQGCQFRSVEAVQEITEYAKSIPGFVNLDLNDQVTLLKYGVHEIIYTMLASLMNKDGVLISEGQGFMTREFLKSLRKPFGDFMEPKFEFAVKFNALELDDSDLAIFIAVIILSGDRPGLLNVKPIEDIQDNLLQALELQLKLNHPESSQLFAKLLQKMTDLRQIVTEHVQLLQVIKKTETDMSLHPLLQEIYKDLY
T1 sequence (P19793 1-462 partner): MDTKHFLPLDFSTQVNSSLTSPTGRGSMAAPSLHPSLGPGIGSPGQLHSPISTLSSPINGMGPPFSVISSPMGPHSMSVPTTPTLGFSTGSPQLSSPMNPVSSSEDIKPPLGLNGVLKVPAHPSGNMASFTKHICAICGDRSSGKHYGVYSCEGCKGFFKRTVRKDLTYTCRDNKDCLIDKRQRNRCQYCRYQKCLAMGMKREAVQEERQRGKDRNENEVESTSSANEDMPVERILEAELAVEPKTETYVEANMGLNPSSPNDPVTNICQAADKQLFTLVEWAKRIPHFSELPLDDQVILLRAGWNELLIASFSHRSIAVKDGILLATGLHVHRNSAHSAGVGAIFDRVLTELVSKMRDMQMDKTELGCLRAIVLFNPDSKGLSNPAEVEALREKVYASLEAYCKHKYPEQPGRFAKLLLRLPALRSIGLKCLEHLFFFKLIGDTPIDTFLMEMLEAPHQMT
Procedure: DNA-dependent binding (ABCD binding) was carried out using SPA technology with PPAR receptors. Tritium-labeled PPARγ and PPARα agonists were used as radioligands for generating displacement curves and IC50 values with compounds of the invention. Cotransfection assays were carried out in CV-1 cells. The reporter plasmid contained an acylCoA oxidase (AOX) PPRE and TK promoter upstream of the luciferase reporter cDNA. Appropriate PPARs and RXRα were constitutively expressed using plasmids containing the CMV promoter. […] In order to eliminate such interference, a GAL4 chimeric system was used in which the DNA binding domain of the transfected PPAR was replaced by that of GAL4, and the GAL4 response element was utilized in place of the AOX PPRE. Cotransfection efficacy was determined relative to PPARα agonist and […] reference molecules. Efficacies were determined by computer fit to a concentration-response curve, or in some cases at a single high concentration of agonist (10 μM). For binding or cotransfection studies with receptors other than PPARs, similar assays were carried out using appropriate ligands, receptors, reporter constructs, etc., for that particular receptor.
(§1) These studies were carried out to evaluate the ability of compounds of the invention to bind to and/or activate various nuclear transcription factors, particularly huPPARα (“hu” indicates “human”) and huPPARγ. These studies provide in vitro data concerning efficacy and selectivity of compounds of the invention. Furthermore, binding and cotransfection data for compounds of the invention were compared with corresponding data for marketed compounds that act on either huPPARα or huPPARγ.

huPPARα = test: Cotransfection assay in CV-1 cells, huPPARα (GAL4 chimeric system); assay type: cell-based, human; details: luciferase reporter, relative to PPARα agonist reference molecule
Procedure: DNA-dependent binding (ABCD binding) was carried out using SPA technology with PPAR receptors. Tritium-labeled PPARγ and PPARα agonists were used as radioligands for generating displacement curves and IC50 values with compounds of the invention. Cotransfection assays were carried out in CV-1 cells. The reporter plasmid contained an acylCoA oxidase (AOX) PPRE and TK promoter upstream of the luciferase reporter cDNA. Appropriate PPARs and RXRα were constitutively expressed using plasmids containing the CMV promoter. For PPARα and PPARβ, interference by endogenous PPARγ in CV-1 cells was an issue. In order to eliminate such interference, a GAL4 chimeric system was used in which the DNA binding domain of the transfected PPAR was replaced by that of GAL4, and the GAL4 response element was utilized in place of the AOX PPRE. Cotransfection efficacy was determined relative to PPARα agonist and […] reference molecules. Efficacies were determined by computer fit to a concentration-response curve, or in some cases at a single high concentration of agonist (10 μM). For binding or cotransfection studies with receptors other than PPARs, similar assays were carried out using appropriate ligands, receptors, reporter constructs, etc., for that particular receptor.
as §1

Row | Compound | inhibition in vivo at 30 mg/kg (db/db mice) [%] | IC50 (huPPARγ) [nM] | huPPARα CTF Efficacy (huPPARα) [%]
1 | Cc1oc(-c2ccc(-c3c(F)cccc3F)cc2)nc1CCOc1ccc(OC(C)(C)C(=O)O)cc1 [Example 14, 2-(4-{2-[2-(2′,6′-Difluorobiphenyl-4-yl)-5-methyloxazol-4-yl]-ethoxy}-phenoxy)-2-methylpropionic acid] | 134 | 457 | 90
2 | Cc1oc(-c2ccc(-c3ccccc3)cc2)nc1CCOc1cccc(OC(C)(C)C(=O)O)c1 [Example 21, 2-{3-[2-(2-Biphenyl-4-yl-5-methyloxazol-4-yl)ethoxy]phenoxy}-2-methylpropionic acid] | 95 | 532 | 92
3 | Cc1sc(-c2cccc(-c3ccccc3)c2)nc1CCOc1ccc(OC(C)(C)C(=O)O)cc1 [Example 46, 2-{4-[2-(2-Biphenyl-3-yl-5-methyl-thiazol-4-yl)-ethoxy]-phenoxy}-2-methyl-propionic acid] | 29 | 268 | 122
